pIC50: −log10 of the molar value.
Legend:
Mouse 11β-HSD-1 = Mouse 11β-HSD-1 (Mus musculus, UniProt P50172); assay: In vitro 11β-HSD1 activity assay, mouse enzyme; format: biochemical
Method: (§1) Measurement of 11β-HSD1 activity
(§2) 11β-HSD1 enzymatic activity was measured in a 50 μl reaction containing 20 mM NaPO4 pH 7.5, 0.1 mM MgCl2, 3 mM NADPH (prepared fresh daily), 125 nM ^3H-cortisone (American Radiochemicals) and 0.5 μg membrane. The reaction was incubated at room temperature for 1 hr before it was stopped by addition of […] containing 20 mM NaPO4 pH 7.5, 30 μM 18β-glycyrrhetinic acid, 1 μg/ml monoclonal anti-cortisol antibody (Biosource) and 2 mg/ml anti-mouse antibody coated scintillation proximity assay (SPA) beads (Amersham Bioscience). The mixture was incubated at room temperature for 2 hrs with vigorous shaking and analyzed on TopCount scintillation counter.

Human 11β-HSD1 = biological target: T1, Human 11β-HSD1 (Homo sapiens, UniProt P28845); assay: In vitro 11β-HSD1 activity assay (SPA, 3H-cortisone, membranes); format: biochemical; settings: human 11β-HSD1 membranes, 125 nM 3H-cortisone, read-out: Human 11β-HSD-1 IC50
T1 construct: myc (N); made in house; host or cells: Sf9 cells (baculovirus, Bac-to-Bac)
Method: In vitro 11β-HSD1 activity assay Preparation of 11β-HSD1 membranes
Human 11β-HSD1 with N-terminal myc tag was expressed in Sf9 cells using baculovirus Bac-to-Bac expression system (Invitrogen) according to manufacturer's instructions. Cells were harvested three days after infection and washed in PBS before frozen. To make membranes, the cells were resuspended in buffer A (20 mM Tris-HCl, pH7.4, 100 mM NaCl, 2 mM EDTA, 2 mM EGTA and Complete™ protease inhibitor tablets (Roche Molecular Biochemicals)), and lysed in a nitrogen bomb at 900 psi. The cell lysate was centrifuged at 600 g for 10 min to remove nuclei and large cell debris. The supernatant was centrifuged at 100,000 g for 1 hr. The membrane pellet was resuspended in buffer A, flash-frozen in liquid nitrogen and stored at −70° C. before use.
as §1, §2

11β-HSD-1 = biological target: T2, 11β-HSD-1 (Mus musculus, UniProt P50172); assay: In vivo screen for inhibition of 11β-HSD-1 (mouse cortisone challenge, plasma cortisol); settings: 30 mpk oral, lean male C57BI/6N mice, cortisone 1 mg/kg sc, plasma cortisol by ELISA
T2 construct: from tissue; host or cells: whole animal, C57Bl/6N mice
Method: In Vivo Screen for Inhibition of 11β-HSD-1
Lean male C57BI/6N mice were orally dosed with a solution of dexamethasone (0.5 mg/kg) and test agent or vehicle (20% HPβCD (10 ml/kg)). One hour later, cortisone was administered (1 mg/kg sc in sesame oil). One hour after cortisone administration, animals were euthanized for blood collection, and plasma cortisol levels were determined with a commercially available ELISA.

T2 sequence (P50172 whole entry): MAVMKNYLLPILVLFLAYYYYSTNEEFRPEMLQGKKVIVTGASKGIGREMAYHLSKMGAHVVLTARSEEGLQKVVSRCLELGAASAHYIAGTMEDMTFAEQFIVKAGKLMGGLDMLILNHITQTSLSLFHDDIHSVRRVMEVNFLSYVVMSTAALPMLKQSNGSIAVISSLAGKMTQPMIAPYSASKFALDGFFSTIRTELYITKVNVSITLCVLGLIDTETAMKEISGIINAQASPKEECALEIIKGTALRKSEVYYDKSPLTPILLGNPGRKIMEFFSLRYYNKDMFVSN
Chain of Mouse 11β-HSD-1 (P50172 whole entry): as above
T1 sequence (P28845 whole entry): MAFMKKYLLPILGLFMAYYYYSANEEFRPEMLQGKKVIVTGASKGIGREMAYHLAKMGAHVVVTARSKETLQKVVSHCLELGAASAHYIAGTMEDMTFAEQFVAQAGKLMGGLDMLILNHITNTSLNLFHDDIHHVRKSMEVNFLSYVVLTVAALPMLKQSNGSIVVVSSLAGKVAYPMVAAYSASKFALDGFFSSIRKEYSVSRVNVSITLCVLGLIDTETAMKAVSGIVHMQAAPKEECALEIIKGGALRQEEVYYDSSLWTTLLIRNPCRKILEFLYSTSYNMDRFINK

SMILES	pIC50 (Mouse 11β-HSD-1)	pIC50 (Human 11β-HSD1)	Mouse cort. challenge % I @ 30 mpk (11β-HSD-1) [%]
CC(=O)c1ccc(S(=O)(=O)N2CC3(C)CC2CC(C)(C)C3)cc1 (stereo not drawn) [Compound No. 16]	6.14	6.86	–
CC(C)c1ccc(S(=O)(=O)N2CC3(C)CC2CC(C)(C)C3)cc1 (stereo not drawn) [compound 17]	6.90	7.17	–
CC1(C)CC2CC(C)(CN2S(=O)(=O)c2ccc([N+](=O)[O-])cc2)C1 (stereo not drawn) [compound 75]	5.23	6.90	–
CC1(C)CC2CC(C)(CN2S(=O)(=O)c2ccc(C(F)(F)F)cc2)C1 (stereo not drawn) [compound 48]	6.16	6.57	–
CC1(C)CC2CC(C)(CN2S(=O)(=O)c2ccc(C(C)(C)O)cc2)C1 (stereo not drawn) [compound 50]	7.37	8.15	43
CC1(C)CC2CC(C)(CN2S(=O)(=O)Cc2ccccc2)C1 (stereo not drawn) [compound 4]	5.10	5.47	–
CC1(C)CC2CC(C)(CN2S(=O)(=O)c2ccc(Cl)cc2)C1 (stereo not drawn) [compound 13]	5.61	6.39	–
CC1(C)CC2CC(C)(CN2S(=O)(=O)c2ccccc2Cl)C1 (stereo not drawn) [compound 12]	4.55	5.85	–
CCC(C)(C)c1ccc(S(=O)(=O)N2CC3(C)CC2CC(C)(C)C3)cc1 (stereo not drawn) [Compound No. 23]	7.72	7.55	26
CC(O)c1ccc(S(=O)(=O)N2CC3(C)CC2CC(C)(C)C3)cc1 (stereo not drawn) [compound 44]	7.17	7.80	63
CC1(C)CC2CC(C)(CN2S(=O)(=O)c2ccc(I)cc2)C1 (stereo not drawn) [compound 32]	5.50	5.60	–
CC1(C)CC2CC(C)(CN2S(=O)(=O)c2ccc(C#N)cc2)C1 (stereo not drawn) [compound 76]	5.74	6.90	–
CCOC(C)c1ccc(S(=O)(=O)N2CC3(C)CC2CC(C)(C)C3)cc1 (stereo not drawn) [compound 46]	7.06	8.00	–
Cc1ccc(S(=O)(=O)N2CC3(C)CC2CC(C)(C)C3)cc1 (stereo not drawn) [Compound No. 6]	6.17	6.61	–
CCC(C)c1ccc(S(=O)(=O)N2CC3(C)CC2CC(C)(C)C3)cc1 (stereo not drawn) [compound 68]	6.95	7.26	–
CC1(C)CC2CC(C)(CN2S(=O)(=O)c2ccc(-c3cnco3)cc2)C1 (stereo not drawn) [compound 62]	6.51	7.02	–
CC(C)Oc1ccc(S(=O)(=O)N2CC3(C)CC2CC(C)(C)C3)cc1 (stereo not drawn) [compound 64]	6.66	6.47	–
COC(C)(C)c1ccc(S(=O)(=O)N2CC3CC(C)(C2)CC3(C)C)cc1 (stereo not drawn) [compound 49]	7.96	7.64	19
COc1cccc(S(=O)(=O)N2CC3(C)CC2CC(C)(C)C3)c1 (stereo not drawn) [compound 10]	5.50	5.60	–
CC1(C)CC2CC(C)(CN2S(=O)(=O)c2ccc(-c3csnn3)cc2)C1 (stereo not drawn) [compound 63]	6.52	6.95	–
CC1(C)CC2CC(C)(CN2S(=O)(=O)c2ccc(Cl)c3nonc23)C1 (stereo not drawn) [compound 3]	5.73	6.39	–
CC1(C)CC2CC(C)(CN2S(=O)(=O)c2ccc(C3CCCCC3)cc2)C1 (stereo not drawn) [compound 61]	6.78	6.38	–
CCCCc1ccc(S(=O)(=O)N2CC3(C)CC2CC(C)(C)C3)cc1 (stereo not drawn) [compound 65]	6.02	6.43	–
CC1(C)CC2CC(C)(CN2S(=O)(=O)c2ccccc2C#N)C1 (stereo not drawn) [compound 29]	4.88	5.24	–
CCC(C)(O)c1ccc(S(=O)(=O)N2CC3(C)CC2CC(C)(C)C3)cc1 (stereo not drawn) [compound 69]	7.17	7.52	–
CC1(C)CC2CC(C)(CN2S(=O)(=O)c2ccc(C(C)(C)C)cc2)C1 (stereo not drawn) [Compound No. 1]	7.15	7.51	30
COC(C)c1ccc(S(=O)(=O)N2CC3(C)CC2CC(C)(C)C3)cc1 (stereo not drawn) [compound 45]	7.57	7.72	16
Cc1ccccc1S(=O)(=O)N1CC2(C)CC1CC(C)(C)C2 (stereo not drawn) [Compound No. 5]	4.74	5.52	–
CCc1ccc(S(=O)(=O)N2CC3(C)CC2CC(C)(C)C3)cc1 (stereo not drawn) [compound 9]	6.38	6.72	–
CC1(C)CC2CC(C)(CN2S(=O)(=O)c2ccc(-c3ccccc3)cc2)C1 (stereo not drawn) [compound 25]	6.44	6.77	–

From US8466149B2, “6-substituted sulfonyl azabicyclo[3.2.1]octanes useful to inhibit 11β-hydroxysteroid dehydrogenase type-I” (Merck Sharp & Dohme Corp., priority 2007, dated 2013)
